Consider seven molecules from US5364869A, “Heterocycle-substituted benzyaminopyridine angiotensin II receptor antagonists” (Abbott Laboratories, priority 1993, dated 1994).

One series has as its target T1, angiotensin II receptor (Oryctolagus cuniculus, UniProt P34976).
T1 construct: Main abdominal aortas were removed and placed in Krebs-Henseleit buffer; from tissue; host or cells: abdominal aorta rings of female New Zealand White rabbits
T1 sequence (P34976 1-359): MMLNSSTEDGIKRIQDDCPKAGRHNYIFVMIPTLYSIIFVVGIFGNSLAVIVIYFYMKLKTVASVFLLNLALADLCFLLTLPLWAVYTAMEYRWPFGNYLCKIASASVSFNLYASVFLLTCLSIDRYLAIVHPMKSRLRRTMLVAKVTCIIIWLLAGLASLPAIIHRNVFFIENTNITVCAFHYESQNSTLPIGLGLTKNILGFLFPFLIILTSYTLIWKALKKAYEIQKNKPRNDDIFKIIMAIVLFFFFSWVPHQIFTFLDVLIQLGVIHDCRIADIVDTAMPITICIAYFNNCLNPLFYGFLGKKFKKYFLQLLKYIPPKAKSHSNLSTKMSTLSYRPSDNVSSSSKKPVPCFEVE
The experiment in a line: Antagonism of contraction of rabbit aorta (angiotensin II functional assay, isolated rabbit aorta). More on the design: species or system rabbit (female New Zealand White). The settings on record: Schild analysis; for Kb: pA2 = negative logarithm of [A]2. From the text: ANGIOTENSIN II FUNCTIONAL ASSAY
Antagonism of Contraction of Rabbit Aorta
The protocol reported by A. T. Chiu and P. Timmermans (P. C. Wong, et al. Hypertension, 13, 489-497 (1989)) was followed with a few modifications. Female New Zealand White rabbits weighing 2-5 kg were sedated with carbon dioxide and then sacrificed. Main abdominal aortas were removed and placed in Krebs-Henseleit buffer at room temperature.
The tissues were cleaned of extraneous connective tissue, cut into 3 mm rings, and suspended within a 10 mL tissue bath. All dilutions of peptide preparations were made with 0.3% aqueous BSA. The tissues were primed with 55 mM potassium chloride. Tissues were pre-loaded with 1 g of tension. Tension was recorded on a model 7 Grass polygraph using FT03 transducers. At the end of the equilibrium period, a control cumulative concentration-contractile response curve for angiotensin II (A II: 1×10^-10 -10^-8 M) was obtained. The tissue was washed several times until the baseline was reached. Forty five minutes later, test compound (antagonist) was added and the tissue was incubated for 30 minutes. The concentration-response curve for A II was then repeated in the presence of the test compound. One dose of antagonist was tested per tissue only. For single dose shift experiments a dose of 1 mM of test compound was used, for a full pA2 experiment multiple doses were used depending upon the potency of the antagonist.
All responses to the control agonist were calculated as a percentage of the maximum response. These points in duplicate were plotted and analyzed according to standard Schild analysis (H. O. Schild, British J Pharmacology and Chemotherapy, 2, 189-206 (1947). The pA2 values calculated for the compounds of the invention are shown in Table 1. The pA2 value is the negative logarithm of the [A]2 value. [A]2 is the concentration of antagonist which necessitates doubling the agonist concentration in order to achieve the agonist effect which was measured in the absence of antagonist.
The pA2 value, therefore is a measure of the effectiveness of the compound as an antagonist.

For series [1], the system named is hypertension and congestive heart failure. Conditions: background; cited from earlier work.
The subject of a further series is angiotensin II. The settings on record: background; cited from earlier work.
The conditions of series [2]: background; cited from earlier work.
The conditions of series [3]: after intravenous administration; due to angiotensin receptor agonist activity; cited from earlier work.

SMILES strings stand for the structures.

For `CCCN(Cc1ccc(OC(C(=O)O)c2ccccc2)cc1)c1nc(C)ncc1C(=O)O` (stereo not drawn) [Example 1, 4-[N-4-(1-Carboxy-1-phenylmethoxy)benzyl-N-propyl]amino-2-methylpyrimidine-5-carboxylic acid], the Kb (usually the equilibrium dissociation constant of an antagonist, usually derived from a functional assay) on angiotensin II receptor is 589 nM. `CCCN(Cc1ccc2c(Br)c(-c3ccccc3-c3nn[nH]n3)sc2c1)c1ncccc1C(=O)O` [Example 3]: the pA2 (as a rule, a measure of antagonist potency on a negative log scale) at angiotensin II receptor (pA2 = negative logarithm of [A]2, 30 min) worked out at 7.53. Regarding `CCCN(Cc1ccc(-n2cc(Br)cc2-c2nn[nH]n2)cc1)c1ncccc1C(=O)O` [Example 4H, 2-{N-Propyl-N-[(1-[3-bromo-5-(1H-tetrazol-5-yl)pyrrole-1-yl]phenyl-4-yl)methyl]amino}pyridine-3-carboxylic acid], at angiotensin II receptor, the Kb is 0.132 nM.

As for `C[C@H](CS)C(=O)N1CCC[C@H]1C(=O)O` [captopril], the “clinical efficacy in treating hypertension and congestive heart failure (in words)” value (“clinical efficacy” for short) in series [1] is “have clinical efficacy in treating hypertension and congestive heart failure”. Regarding `CCOC(=O)[C@H](CCc1ccccc1)N[C@@H](C)C(=O)N1CCC[C@H]1C(=O)O` [enalapril], the “clinical efficacy” value in series [1] is “have clinical efficacy in treating hypertension and congestive heart failure”. Turning to `COc1ccc(C[C@H](NC(=O)CC(C)(C)N)C(=O)N[C@@H](Cc2cnc[nH]2)C(=O)N[C@@H](CC2CCCCC2)[C@@H](O)[C@@H](O)CC(C)C)cc1` [enalkiren], the “clinical efficacy” value in series [1] is “have clinical efficacy in treating hypertension and congestive heart failure”. `CNCC(=O)N[C@@H](CCCN=C(N)N)C(=O)N[C@H](C(=O)N[C@@H](Cc1ccc(O)cc1)C(=O)N[C@H](C(=O)N[C@@H](Cc1cnc[nH]1)C(=O)N1CCC[C@H]1C(=O)N[C@@H](C)C(=O)O)C(C)C)C(C)C` [saralasin, [Sar^1, Ala^8] angiotensin II]: the “antagonist of the actions of angiotensin II (in words)” value in the series with angiotensin II is “potent antagonist of the actions of angiotensin II”. In addition, the “oral bioavailability (in words)” value in series [2] is “very poor oral bioavailability”. Moreover, in series [3], the “initial blood pressure change (in words)” value was “initial increase in blood pressure after intravenous administration”.
